Data as given in patent US11970494B2, “6-heteroaryloxy benzimidazoles and azabenzimidazoles as JAK2 inhibitors” (Ajax Therapeutics, Inc., priority 2021, dated 2024).
One block for each compound: values may come before it.

Assay: Caco2 Permeability Assay
Assay type: in vitro ADME
Settings: human; for efflux ratio at 2 h, 5 μM: pH 7.4, Caco-2, 5 μM, read-out: Efflux Ratio (ER); for Papp A→B at 2 h, 5 μM: pH 7.4, Caco-2, apical to basolateral
Experimental: Preparation of Caco-2 Cells: 50 μL and 25 mL of cell culture medium are added to each well of a Transwell® insert and reservoir, respectively. Then, the HTS Transwell® plates are incubated at 37° C., 5% CO2 for 1 hour before cell seeding. Caco-2 cell cells are diluted to 6.86×10^5 cells/mL with culture medium, and 50 μL of cell suspension are dispensed into the filter well of the 96-well HTS Transwell® plate. Cells are cultivated for 14-18 days in a cell culture incubator at 37° C., 5% CO2, 95% relative humidity. Cell culture medium is replaced every other day, beginning no later than 24 hours after initial plating.
Preparation of Stock Solutions: 10 mM stock solutions of test compounds are prepared in DMSO. The stock solutions of positive controls are prepared in DMSO at the concentration of 10 mM. Digoxin and propranolol are used as control compounds in this assay.
Assessment of Cell Monolayer Integrity: Medium is removed from the reservoir and each Transwell® insert and is replaced with prewarmed fresh culture medium. Transepithelial electrical resistance (TEER) across the monolayer is measured using Millicell Epithelial Volt-Ohm measuring system (Millipore, USA). The Plate is returned to the incubator once the measurement is done. The TEER value is calculated according to the following equation: TEER measurement (ohms)×Area of membrane (cm^2)=TEER value (ohm⋅cm^2). A TEER value greater than 230 ohm⋅cm^2 indicates a well-qualified Caco-2 monolayer.
Assay Procedure: The Caco-2 plate is removed from the incubator and washed twice with pre-warmed HBSS (10 mM HEPES, pH 7.4), and then incubated at 37° C. for 30 minutes. The stock solutions of control compounds are diluted in DMSO to get 1 mM solutions and then diluted with HBSS (10 mM HEPES, pH 7.4) to get 5 μM working solutions. The stock solutions of the test compounds are diluted in DMSO to get 1 mM solutions and then diluted with HBSS (10 mM HEPES and 4% BSA, pH 7.4) to get 5 μM working solutions. The final concentration of DMSO in the incubation system is 0.5%. To determine the rate of drug transport in the apical to basolateral direction. 75 μL of 5 μM working solutions of test compounds are added to the Transwell® insert (apical compartment) and the wells in the receiver plate (basolateral compartment) are filled with 235 μL of HBSS (10 mM HEPES and 4% BSA, pH 7.4). To determine the rate of drug transport in the basolateral to apical direction, 235 μL of 5 μM working solutions of test compounds are added to the receiver plate wells (basolateral compartment) and then the Transwell® inserts (apical compartment) are filled with 75 μL of HBSS (10 mM HEPES and 4% BSA, pH 7.4). Time 0 samples are prepared by transferring 50 μL of 5 μM working solution to wells of the 96-deepwell plate, followed by the addition of 200 μL cold methanol containing appropriate internal standards (IS). The plates are incubated at 37° C. for 2 hours. At the end of the incubation, 50 μL samples from donor sides (apical compartment for Ap→*Bl flux, and basolateral compartment for Bl→Ap) and receiver sides (basolateral compartment for Ap→Bl flux, and apical compartment for Bl→Ap) are transferred to wells of a new 96-well plate, followed by the addition of 4 volume of cold acetonitrile or methanol containing appropriate internal standards (IS). Samples are vortexed for 5 minutes and then centrifuged at 3,220 g for 40 minutes. An aliquot of 100 μL of the supernatant is mixed with an appropriate volume of ultra-pure water before LC-MS/MS analysis. To determine the Lucifer Yellow leakage after 2 hour transport period, stock solution of Lucifer yellow is prepared in ultra-pure water and diluted with HBSS (10 mM HEPES, pH 7.4) to reach the final concentration of 100 μM. 100 μL of the Lucifer yellow solution is added to each Transwell® insert (apical compartment), followed by filling the wells in the receiver plate (basolateral compartment) with 300 μL of HBSS (10 mM HEPES, pH 7.4). […]

SMILES: COC(=O)Nc1cc(Oc2cnc3nc(Nc4cc(C(F)(F)F)cn(C)c4=O)n(C)c3c2C#N)ccn1 [Example I-3, Methyl (4-((7-cyano-1-methyl-2-((1-methyl-2-oxo-5-(trifluoromethyl)-1,2-dihydropyridin-3-yl)amino)-1H-imidazo[4,5-b]pyridin-6-yl)oxy)pyridin-2-yl)carbamate]
efflux ratio at 2 h, 5 μM: ≤ 2 | Papp A→B at 2 h, 5 μM: 12 ×10⁻⁶ cm/s

SMILES: CN(C)C(=O)Nc1cc(Oc2cnc3nc(Nc4cc(C(F)(F)F)cn(C)c4=O)n(C)c3c2C#N)ccn1 [Example I-4, 3-(4-((7-cyano-1-methyl-2-((1-methyl-2-oxo-5-(trifluoromethyl)-1,2-dihydropyridin-3-yl)amino)-1H-imidazo[4,5-b]pyridin-6-yl)oxy)pyridin-2-yl)-1,1-dimethylurea]
efflux ratio at 2 h, 5 μM: 2 to 5 | Papp A→B at 2 h, 5 μM: 7 ×10⁻⁶ cm/s

SMILES: CN(C)C(=O)Nc1cc(Oc2cnc3nc(Nc4cc5n(n4)CCC54CCC4)n(C)c3c2C#N)ccn1 [Example I-56, 3-(4-((7-cyano-2-((5′,6′-dihydrospiro[cyclobutane-1,4′-pyrrolo[1,2-b]pyrazol]-2′-yl)amino)-1-methyl-1H-imidazo[4,5-b]pyridin-6-yl)oxy)pyridin-2-yl)-1,1-dimethylurea]
efflux ratio at 2 h, 5 μM: ≤ 2 | Papp A→B at 2 h, 5 μM: 5 ×10⁻⁶ cm/s

SMILES: COC(=O)Nc1cc(Oc2cnc3nc(Nc4cc5n(n4)CCC54CCC4)n(C)c3c2C#N)ccn1 [Example I-57, methyl(4-((7-cyano-2-((5′,6′-dihydrospiro[cyclobutane-1,4′-pyrrolo[1,2-b]pyrazol]-2′-yl)amino)-1-methyl-1H-imidazo[4,5-b]pyridin-6-yl)oxy)pyridin-2-yl)carbamate]
efflux ratio at 2 h, 5 μM: ≤ 2 | Papp A→B at 2 h, 5 μM: 5 ×10⁻⁶ cm/s

SMILES: CO[C@@H]1CCN(C(=O)Nc2cc(Oc3cnc4nc(Nc5cc6n(n5)CCC65CCC5)n(C)c4c3C#N)ccn2)C1 [Example I-60, (R)-N-(4-((7-cyano-2-((5′,6′-dihydrospiro[cyclobutane-1,4′-pyrrolo[1,2-b]pyrazol]-2′-yl)amino)-1-methyl-1H-imidazo[4,5-b]pyridin-6-yl)oxy)pyridin-2-yl)-3-methoxypyrrolidine-1-carboxamide]
efflux ratio at 2 h, 5 μM: ≤ 2 | Papp A→B at 2 h, 5 μM: 6 ×10⁻⁶ cm/s

SMILES: COC1CN(C(=O)Nc2cc(Oc3cnc4nc(Nc5cc6n(n5)CCC65CCC5)n(C)c4c3C#N)ccn2)C1 [Example I-61, N-(4-((7-cyano-2-((5′,6′-dihydrospiro[cyclobutane-1,4′-pyrrolo[1,2-b]pyrazol]-2′-yl)amino)-1-methyl-1H-imidazo[4,5-b]pyridin-6-yl)oxy)pyridin-2-yl)-3-methoxyazetidine carboxamide]
efflux ratio at 2 h, 5 μM: 2 to 5 | Papp A→B at 2 h, 5 μM: 3 ×10⁻⁶ cm/s

SMILES: COCCOC(=O)Nc1cc(Oc2cnc3nc(Nc4cc5n(n4)CCC54CCC4)n(C)c3c2C#N)ccn1 [Example I-62, 2-methoxyethyl(4-((7-cyano-2-((5′,6′-dihydrospiro[cyclobutane-1,4′-pyrrolo[1,2-b]pyrazol]-2′-yl)amino)-1-methyl-1H-imidazo[4,5-b]pyridin-6-yl)oxy)pyridin-2-yl)carbamate]
efflux ratio at 2 h, 5 μM: ≤ 2 | Papp A→B at 2 h, 5 μM: 5 ×10⁻⁶ cm/s

SMILES: COCC(=O)Nc1cc(Oc2cnc3nc(Nc4cc(C(F)(F)F)cn(C)c4=O)n(C)c3c2C#N)ccn1 [Example I-79, N-(4-((7-cyano-1-methyl-2-((1-methyl-2-oxo-5-(trifluoromethyl)-1,2-dihydropyridin-3-yl)amino)-1H-imidazo[4,5-b]pyridin-6-yl)oxy)pyridin-2-yl)-2-methoxyacetamide]
efflux ratio at 2 h, 5 μM: ≤ 2 | Papp A→B at 2 h, 5 μM: 15 ×10⁻⁶ cm/s

Second part, the compound after the results:

efflux ratio at 2 h, 5 μM: 2 to 5 | Papp A→B at 2 h, 5 μM: 6 ×10⁻⁶ cm/s
SMILES: Cn1cc(C(F)(F)F)cc(Nc2nc3ncc(Oc4ccnc(NC(=O)N5CCC5)c4)c(C#N)c3n2C)c1=O [Example I-7, N-(4-((7-cyano-1-methyl-2-((1-methyl-2-oxo-5-(trifluoromethyl)-1,2-dihydropyridin-3-yl)amino)-1H-imidazo[4,5-b]pyridin-6-yl)oxy)pyridin-2-yl)azetidine-1-carboxamide]

efflux ratio at 2 h, 5 μM: 2 to 5 | Papp A→B at 2 h, 5 μM: 4 ×10⁻⁶ cm/s
SMILES: CO[C@H]1CCN(C(=O)Nc2cc(Oc3cnc4nc(Nc5cc(C(F)(F)F)cn(C)c5=O)n(C)c4c3C#N)ccn2)C1 [Example I-14, (S)-N-(4-((7-cyano-1-methyl-2-((1-methyl-2-oxo-5-(trifluoromethyl)-1,2-dihydropyridin-3-yl)amino)-1H-imidazo[4,5-b]pyridin-6-yl)oxy)pyridin-2-yl)-3-methoxypyrrolidine-1-carboxamide]

efflux ratio at 2 h, 5 μM: 2 to 5 | Papp A→B at 2 h, 5 μM: 4 ×10⁻⁶ cm/s
SMILES: Cn1cc(C(F)(F)F)cc(Nc2nc3ncc(Oc4ccnc(NC(=O)OCCN5CCOCC5)c4)c(C#N)c3n2C)c1=O [Example I-15, 2-Morpholinoethyl(4-((7-cyano-1-methyl-2-((1-methyl-2-oxo-5-(trifluoromethyl)-1,2-dihydropyridin-3-yl)amino)-1H-imidazo[4,5-b]pyridin-6-yl)oxy)pyridin-2-yl)carbamate]

efflux ratio at 2 h, 5 μM: 2 to 5 | Papp A→B at 2 h, 5 μM: 2 ×10⁻⁶ cm/s
SMILES: Cn1cc(C(F)(F)F)cc(Nc2nc3ncc(Oc4ccnc(NC(=O)O[C@@H]5CCOC5)c4)c(C#N)c3n2C)c1=O [Example I-18, (R)-Tetrahydrofuran-3-yl(4-((7-cyano-1-methyl-2-((1-methyl-2-oxo-5-(trifluoromethyl)-1,2-dihydropyridin-3-yl)amino)-1H-imidazo[4,5-b]pyridin-6-yl)oxy)pyridin-2-yl)carbamate]

efflux ratio at 2 h, 5 μM: 5 to 10 | Papp A→B at 2 h, 5 μM: 2 ×10⁻⁶ cm/s
SMILES: COC1CN(C(=O)Nc2cc(Oc3cnc4nc(Nc5cc6n(n5)CCCC6(F)F)n(C)c4c3C#N)ccn2)C1 [Example I-26, N-(4-((7-cyano-2-((4,4-difluoro-4,5,6,7-tetrahydropyrazolo[1,5-a]pyridin-2-yl)amino)-1-methyl-1H-imidazo[4,5-b]pyridin-6-yl)oxy)pyridin-2-yl)-3-methoxyazetidine-1-carboxamide]

efflux ratio at 2 h, 5 μM: 5 to 10 | Papp A→B at 2 h, 5 μM: 2 ×10⁻⁶ cm/s
SMILES: Cn1c(Nc2cc3n(n2)CCOC3(C)C)nc2ncc(Oc3ccnc(NC(=O)O[C@@H]4CCOC4)c3)c(C#N)c21 [Example I-48, (R)-Tetrahydrofuran-3-yl(4-((7-cyano-2-((4,4-dimethyl-6,7-dihydro-4H-pyrazolo[5,1-c][1,4]oxazin-2-yl)amino)-1-methyl-1H-imidazo[4,5-b]pyridin-6-yl)oxy)pyridin-2-yl)carbamate]

efflux ratio at 2 h, 5 μM: ≤ 2 | Papp A→B at 2 h, 5 μM: 12 ×10⁻⁶ cm/s
SMILES: COCC(=O)Nc1cc(Oc2cnc3nc(Nc4cc(C(F)(F)F)cn(C)c4=O)n(C)c3c2Cl)ccn1 [Example I-75, N-(4-((7-chloro-1-methyl-2-((1-methyl-2-oxo-5-(trifluoromethyl)-1,2-dihydropyridin-3-yl)amino)-1H-imidazo[4,5-b]pyridin-6-yl)oxy)pyridin-2-yl)-2-methoxyacetamide]

efflux ratio at 2 h, 5 μM: ≤ 2 | Papp A→B at 2 h, 5 μM: 5 ×10⁻⁶ cm/s
SMILES: CC(=O)Nc1cc(Oc2cnc3nc(Nc4cc(C(F)(F)F)cn(C)c4=O)n(C)c3c2Cl)c(F)cn1 [Example I-88, N-(4-((7-chloro-1-methyl-2-((1-methyl-2-oxo-5-(trifluoromethyl)-1,2-dihydropyridin-3-yl)amino)-1H-imidazo[4,5-b]pyridin-6-yl)oxy)-5-fluoropyridin-2-yl)acetamide]

efflux ratio at 2 h, 5 μM: ≤ 2 | Papp A→B at 2 h, 5 μM: 4 ×10⁻⁶ cm/s
SMILES: CC(=O)Nc1cc(Oc2cnc3nc(Nc4cc5n(n4)CCCC54CC4)n(C)c3c2C#N)ccn1 [Example I-114, N-(4-((7-cyano-2-((6′,7′-dihydro-5′H-spiro[cyclopropane-1,4′-pyrazolo[1,5-a]pyridin]-2′-yl)amino)-1-methyl-1H-imidazo[4,5-b]pyridin-6-yl)oxy)pyridin-2-yl)acetamide]
